# From patent US11931397B2, “Methods and compositions for the treatment of Sengers syndrome” (Stealth BioTherapeutics Inc., priority 2018, dated 2024)
# Where a SMILES comes first, the peptide text is derived from it. Where no end group is shown, it is not given here. [ ]: non-standard residue; d: D form. Dmt = Cc1cc(O)cc(C)c1C[C@H](N)C(=O)O
# How the values were obtained:
# [1] = test system: patient with a homozygous AGK founder mutation (Sengers syndrome); details: approximately six months, 0.25 then 0.50 mg/kg/day intravenous
# Procedure: The patient was treated with D-Arg-2′6′-Dmt-Lys-Phe-NH2 for approximately six months through a compassionate care protocol.
# mu-opioid receptor = mu-opioid receptor (Homo sapiens, UniProt P35372); test: Mu-opioid receptor agonist activity (stated, no test described); details: statement of the description, no test given
# [2] = test system: several mammalian cell types; details: cited from earlier work
# Chain of mu-opioid receptor (P35372 whole entry, species assumed): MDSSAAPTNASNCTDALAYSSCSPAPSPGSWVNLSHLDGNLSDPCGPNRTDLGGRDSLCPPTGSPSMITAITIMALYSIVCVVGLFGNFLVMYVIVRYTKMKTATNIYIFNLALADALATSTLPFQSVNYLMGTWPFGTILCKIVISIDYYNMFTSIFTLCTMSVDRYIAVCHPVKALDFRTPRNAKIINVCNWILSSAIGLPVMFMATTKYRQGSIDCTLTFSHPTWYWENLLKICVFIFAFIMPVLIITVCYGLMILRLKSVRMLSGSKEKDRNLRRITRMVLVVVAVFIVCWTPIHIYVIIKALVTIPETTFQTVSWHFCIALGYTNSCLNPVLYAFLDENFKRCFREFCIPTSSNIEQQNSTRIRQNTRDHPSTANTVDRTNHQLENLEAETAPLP
Compound,mu-opioid receptor agonist activity (mu-opioid receptor),further results
Cc1cc(O)cc(C)c1C[C@H](NC(=O)[C@H](N)CCCNC(=N)N)C(=O)N[C@@H](CCCCN)C(=O)N[C@@H](Cc1ccccc1)C(N)=O [D-Arg-2′6′-Dmt-Lys-Phe-NH2] (H-[dR][Dmt]KF-NH2),–,Side effects attributable to treatment [1]: no discernable side effects
F[dR]FK-NH2,does not have mu-opioid receptor agonist activity,–
Tyr-D-Arg-Phe-Lys-NH2,has mu-opioid receptor agonist activity,–
"2′, 6′-Dmt-D-Arg-Phe-Lys-NH2",–,Penetration of the plasma membrane [2]: readily penetrates the plasma membrane of several mammalian cell types in an energy-independent manner
